Test results reported in ChEMBL document CHEMBL1154835, “Antimicrobial study of newly synthesized 6-substituted indolo[1,2-c]quinazolines” (2010).
Values after ≈ are worked out from the molar mass of the structure shown.

How the values were obtained:
Staphylococcus aureus [1] = assay: Antimicrobial activity against Staphylococcus aureus at 1000 ug after 24 hrs by cup plate method; type: functional; conditions: read-out: DIZ
Bacillus subtilis [2] = assay: Antimicrobial activity against Bacillus subtilis at 1000 ug after 24 hrs by cup plate method; type: functional; conditions: read-out: DIZ
Streptococcus pyogenes [3] = assay: Antimicrobial activity against Streptococcus pyogenes at 1000 ug after 24 hrs by cup plate method; type: functional; conditions: read-out: DIZ
Escherichia coli [4] = assay: Antimicrobial activity against Escherichia coli at 1000 ug after 24 hrs by cup plate method; type: functional; conditions: read-out: DIZ
Salmonella enterica [5] = assay: Antimicrobial activity against Salmonella Typhimurium at 1000 ug after 24 hrs by cup plate method; type: functional, Salmonella enterica subsp. enterica serovar Typhimurium; conditions: read-out: DIZ
Klebsiella pneumoniae [6] = assay: Antimicrobial activity against Klebsiella pneumoniae at 1000 ug after 24 hrs by cup plate method; type: functional; conditions: read-out: DIZ
Aspergillus niger [7] = assay: Antimicrobial activity against Aspergillus niger at 1000 ug after 72 hrs by cup plate method; type: functional; conditions: read-out: DIZ
Candida albicans [8] = assay: Antimicrobial activity against Candida albicans at 1000 ug after 72 hrs by cup plate method; type: functional; conditions: read-out: DIZ
Trichoderma viride [9] = assay: Antimicrobial activity against Trichoderma viride at 1000 ug after 72 hrs by cup plate method; type: functional; conditions: read-out: DIZ
Staphylococcus aureus [10] = assay: Antimicrobial activity against Staphylococcus aureus after 24 hrs by liquid dilution method; type: functional
Bacillus subtilis [11] = assay: Antimicrobial activity against Bacillus subtilis after 24 hrs by liquid dilution method; type: functional
Streptococcus pyogenes [12] = assay: Antimicrobial activity against Streptococcus pyogenes after 24 hrs by liquid dilution method; type: functional
Salmonella enterica [13] = assay: Antimicrobial activity against Salmonella Typhimurium after 24 hrs by liquid dilution method; type: functional, Salmonella enterica subsp. enterica serovar Typhimurium
Escherichia coli [14] = assay: Antimicrobial activity against Escherichia coli after 24 hrs by liquid dilution method; type: functional
Klebsiella pneumoniae [15] = assay: Antimicrobial activity against Klebsiella pneumoniae after 24 hrs by liquid dilution method; type: functional
Aspergillus niger [16] = assay: Antimicrobial activity against Aspergillus niger after 24 hrs by liquid dilution method; type: functional
Candida albicans [17] = assay: Antimicrobial activity against Candida albicans after 24 hrs by liquid dilution method; type: functional
Trichoderma viride [18] = assay: Antimicrobial activity against Trichoderma viride after 24 hrs by liquid dilution method; type: functional

Structure (SMILES)	zone of inhibition at 1000 µg/disc (Staphylococcus aureus [1]) [mm]	zone of inhibition at 1000 µg/disc (Bacillus subtilis [2]) [mm]	zone of inhibition at 1000 µg/disc (Streptococcus pyogenes [3]) [mm]	zone of inhibition at 1000 µg/disc (Escherichia coli [4]) [mm]	zone of inhibition at 1000 µg/disc (Salmonella enterica [5]) [mm]	zone of inhibition at 1000 µg/disc (Klebsiella pneumoniae [6]) [mm]	zone of inhibition at 1000 µg/disc (Aspergillus niger [7]) [mm]	zone of inhibition at 1000 µg/disc (Candida albicans [8]) [mm]	zone of inhibition at 1000 µg/disc (Trichoderma viride [9]) [mm]	MIC (Staphylococcus aureus [10]) [µg/mL]	MIC (Bacillus subtilis [11]) [µg/mL]	MIC (Streptococcus pyogenes [12]) [µg/mL]	MIC (Salmonella enterica [13]) [µg/mL]	MIC (Escherichia coli [14]) [µg/mL]	MIC (Klebsiella pneumoniae [15]) [µg/mL]	MIC (Aspergillus niger [16]) [µg/mL]	MIC (Candida albicans [17]) [µg/mL]	MIC (Trichoderma viride [18]) [µg/mL]
Cc1ccc2[nH]cc(-c3nc4ccccc4c4cc5ccccc5n34)c2c1	52	42	45	42	46	48	50	51	46	5 (≈ 14.4 µM)	10 (≈ 28.8 µM)	5 (≈ 14.4 µM)	5 (≈ 14.4 µM)	2.5 (≈ 7.2 µM)	2.5 (≈ 7.2 µM)	2.5 (≈ 7.2 µM)	20 (≈ 57.6 µM)	5 (≈ 14.4 µM)
c1ccc2c(c1)cc1c3ccccc3nc(-c3csc4ccccc34)n21	55	51	48	48	50	50	52	45	49	2.5 (≈ 7.13 µM)	2.5 (≈ 7.13 µM)	5 (≈ 14.3 µM)	2.5 (≈ 7.13 µM)	2.5 (≈ 7.13 µM)	5 (≈ 14.3 µM)	2.5 (≈ 7.13 µM)	10 (≈ 28.5 µM)	2.5 (≈ 7.13 µM)
c1ccc2c(c1)cc1c3ccccc3nc(-c3ccc(-c4ccncc4)cc3)n21	50	48	42	35	25	42	22	18	21	5 (≈ 13.5 µM)	10 (≈ 26.9 µM)	15 (≈ 40.4 µM)	20 (≈ 53.8 µM)	25 (≈ 67.3 µM)	30 (≈ 80.8 µM)	25 (≈ 67.3 µM)	30 (≈ 80.8 µM)	25 (≈ 67.3 µM)
c1ccc2c(c1)cc1c3ccccc3nc(-c3c[nH]c4ccccc34)n21	51	46	49	52	48	49	46	49	50	2.5 (≈ 7.5 µM)	15 (≈ 45 µM)	2.5 (≈ 7.5 µM)	2.5 (≈ 7.5 µM)	2.5 (≈ 7.5 µM)	5 (≈ 15 µM)	10 (≈ 30 µM)	5 (≈ 15 µM)	2.5 (≈ 7.5 µM)
CC1(C)S[C@@H]2[C@H](NC(=O)[C@H](N)c3ccccc3)C(=O)N2[C@H]1C(=O)O [AMPICILLIN]	48	39	35	40	45	45	–	–	–	10 (≈ 28.6 µM)	20 (≈ 57.2 µM)	25 (≈ 71.5 µM)	10 (≈ 28.6 µM)	5 (≈ 14.3 µM)	10 (≈ 28.6 µM)	–	–	–
CC(=O)N1CCN(c2ccc(OCC3COC(Cn4ccnc4)(c4ccc(Cl)cc4Cl)O3)cc2)CC1 (stereo not given) [KETOCONAZOLE]	–	–	–	–	–	–	45	40	41	–	–	–	–	–	–	15 (≈ 28.2 µM)	25 (≈ 47 µM)	20 (≈ 37.6 µM)
